Measured values taken from patent US9844534B2, “PKC delta inhibitors for use as therapeutics” (Faller & Williams Technology, LLC, priority 2012, dated 2017).

What was measured:
H727 cells [1] = experiment: Clonogenic assay; format: cell-based, human; details: H727, exposure 6-72 hr, replated without inhibitor
Protocol: Clonogenic Assays: 100,000 cells were seeded on 100 mm dishes 5 with 10 ml media per dish (Li et al. 2004). […] Cells were trypsinized; counted via Trypan Blue Exclusion Method in order to determine the number of live cells in the sample, and 500 live cells were seeded in triplicate onto 6 well plates. Cells were monitored for appropriate colony size and re-fed every three to four days. At Day 17, cells were stained with ethidium bromide (Guda et al. 2007) and counted using UVP LabWorks software.
LDH release assesses cytotoxic damage sufficient to compromise membrane integrity over a relatively short time-span. An alternative method, which assesses lethal, but not necessarily immediate, cumulative damage to the tumor cell is a clonogenic assay. In this assay, tumor cells which remain viable after exposure to the compound are tested for their ability to proliferate sufficiently over time to form colonies of tumor cells. H727 treated with vehicle or a PKC delta inhibitor at sub-optimal concentrations varying durations. After replating of viable cells in media without inhibitor, colony numbers were quantitated over time.

PKC delta protein = details: longer periods of exposure; no effect on levels of other PKC isozymes; cited from earlier work
PKC alpha = target: T1, PKC alpha (Homo sapiens, UniProt P17252); experiment: PKC kinase activity assay (Omnia Kinase Assay); format: biochemical
T1 construct: purchased Invitrogen
Protocol: PKC Kinase Activity Assays: Assays were carried out using recombinant PKC alpha or PKC gamma, (Invitrogen) and the Omnia® Kinase Assays (Invitrogen) with a “PKC kinase-specific” peptide substrate. Incorporation of a chelation-enhanced fluorophore (CHEF) results in an increase in fluorescence ex360/em485) upon phosphorylation. The kit was used according to the manufacturer's instructions.

H727 cells [2] = experiment: Cytotoxicity assay (LDH release); format: cell-based, human
Excerpt: Briefly, total culture medium was cleared by centrifugation. For assay of released LDH, supernatants were collected.

BON1 cells = experiment: Cell proliferation assay (MTT/MTS); format: cell-based, human
Excerpt: (§1) Cell Lines: BON1, a human foregut (pancreatic) carcinoid tumor cell line (Parekh et al. 1994) was obtained from Kjell Oberg (Uppsala University, Sweden) through Dr. Evan Vosburgh. H727 cells, derived from a human bronchopulmonary carcinoid tumor (Schuller et al. 1987), were purchased from ATCC. The CNDT 2.5 cell line, initially described as a human midgut carcinoid tumor cell line (Van Buren et al. 2007), was provided by Dr. Lee Ellis, (MD Anderson Cancer Center). The provenance of this cell line is currently under review by the originator. BONI, H727, MCF10 and CNDT 2.5 cells were propagated in 10% FBS (Invitrogen); Dulbecco's Modification of Earle's Media/Hams F-12 50:50 media (Cellgro); 2 mM L-Glutamine (Invitrogen); 200 U Penicillin/ml; 200 μg Streptomycin/ml (Invitrogen); 10 ng/ml Nerve Growth Factor (Invitrogen); 1×MEM Non-Essential Amino Acids (Cellgro); 1×MEM Vitamin Solution (Cellgro); 1 mM Sodium Pyruvate; 0.015 M HEPES buffer (pH7.3) (American Bioanalytical).
(§2) Cell Proliferation Assays—Cell proliferation was assessed using an MTT [3-(4,5-dimethylthiazol-2-yl)-2,5-diphenyltetrazolium bromide] assay (Roche, Mannheim, Germany). The number of viable cells growing in a single well on a 96-well microtiter plate was estimated by adding 10 μl of MTT solution (5 mg/ml in phosphate-buffered saline [PBS]). After 4 h of incubation at 37° C., the stain is diluted with 100 μl of dimethyl sulfoxide. The optical densities are quantified at a test wavelength of 570 nm and a reference wavelength of 690 nm on a multiwell spectrophotometer. In some assays, MTS was used as substrate (Promega, Madison, Wis.), and the absorbance of the product was monitored at 490 nm.

H727 cells [3] = experiment: Cell proliferation assay (MTT/MTS); format: cell-based, human
Excerpt: as §1, §2

CNDT 2.5 cells = experiment: Cell proliferation assay (MTT/MTS); format: cell-based, human
Excerpt: as §1, §2

[4] = tested on: nontumorigenic murine or human cells; details: same culture conditions; cited from earlier work
PKC delta = PKC delta (Homo sapiens, UniProt Q05655); details: cultured cells, given as 'in vivo'; read-out: IC50, inhibition of PKC delta in cultured cells; cited from earlier work
Chain of PKC delta (Q05655 whole entry): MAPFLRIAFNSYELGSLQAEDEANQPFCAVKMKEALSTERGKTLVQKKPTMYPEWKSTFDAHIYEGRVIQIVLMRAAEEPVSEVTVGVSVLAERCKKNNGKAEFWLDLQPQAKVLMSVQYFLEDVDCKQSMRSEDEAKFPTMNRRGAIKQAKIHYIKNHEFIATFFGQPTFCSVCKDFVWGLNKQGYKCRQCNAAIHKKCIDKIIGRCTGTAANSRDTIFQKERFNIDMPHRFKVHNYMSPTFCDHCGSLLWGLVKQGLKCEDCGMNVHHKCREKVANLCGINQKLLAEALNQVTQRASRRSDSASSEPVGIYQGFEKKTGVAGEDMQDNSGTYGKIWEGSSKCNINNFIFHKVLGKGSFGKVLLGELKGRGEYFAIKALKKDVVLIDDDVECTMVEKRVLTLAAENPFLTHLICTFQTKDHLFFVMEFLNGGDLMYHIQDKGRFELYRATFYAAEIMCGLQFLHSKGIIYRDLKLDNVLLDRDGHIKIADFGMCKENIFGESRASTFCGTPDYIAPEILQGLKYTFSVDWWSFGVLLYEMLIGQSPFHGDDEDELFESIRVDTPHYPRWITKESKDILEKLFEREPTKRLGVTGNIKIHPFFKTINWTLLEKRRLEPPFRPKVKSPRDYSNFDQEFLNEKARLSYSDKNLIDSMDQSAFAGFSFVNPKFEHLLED

Compound | effect on clonogenic capacity versus DMSO control (H727 cells [1]) | down-regulation of PKC delta protein in cells (PKC delta protein) | IC50 (PKC alpha) | cytotoxicity as assessed by LDH release (H727 cells [2]; H727, 24, 48 and 72 hours) | LDH release versus vehicle control, significance (H727 cells [2]; H727, p<0.003) | reduction in relative cell numbers (BON1 cells; BON1, by 72 hrs, highest concentrations tested) | growth-inhibitory effect on long-term exposure (BON1 cells; BON1, sub-optimal concentration (10 μM), re-fed with inhibitor after 72 hr) | duration of exposure needed to inhibit proliferation (washout) (BON1 cells; BON1, sub-optimal concentration, inhibitor washed out, growth assessed over next 72 hrs) | IC50 (BON1 cells; Homo sapiens, BON1, by 48 hrs, read-out: IC50, decrease in cell number) | reduction in relative cell numbers (H727 cells [3]; H727, by 72 hrs, highest concentrations tested) | IC50 (H727 cells [3]; Homo sapiens, NCI-H727, H727, by 48 hrs, read-out: IC50, decrease in cell number) | reduction in relative cell numbers (CNDT 2.5 cells; CNDT 2.5, by 72 hrs, highest concentrations tested) | growth-inhibitory effect on long-term exposure (CNDT 2.5 cells; CNDT, sub-optimal concentration (10 μM), re-fed with inhibitor after 72 hr) | IC50 (CNDT 2.5 cells; Homo sapiens, CNDT 2.5, by 48 hrs, read-out: IC50, decrease in cell number) | effect on growth of nontumorigenic cells [4] | IC50 (PKC delta) | effect on proliferation (BON1 cells; BON1, siRNA knockdown, MTS) | effect on proliferation (CNDT 2.5 cells; CNDT, siRNA knockdown, MTS)
CC(=O)c1c(O)c(C)c(O)c(Cc2c(O)c3c(c(C(=O)/C=C/c4ccccc4)c2O)OC(C)(C)C=C3)c1O [rottlerin] | reached significance (p=0.0051) at 6 hr of exposure | significantly down-regulates PKC delta protein | > 50 µM | cytotoxicity increasing as a function of time and concentration | reached significance by 24 hr of exposure | significant reduction in relative cell numbers | growth-inhibitory effects persisted to 168 hr | statistically significant by 24 hr of exposure | ~5 µM | significant reduction in relative cell numbers | ~5 µM | significant reduction in relative cell numbers | growth-inhibitory effects persisted to 168 hr | ~5 µM | no significant effect on the growth | 5 µM |  | 
PKC delta-specific siRNA: siRNA duplexes targeting PKC delta (SEQ ID NO 1 and 2), obtained from Qiagen (chain 1 GAUGAAGGAGGCGCUCAGTT; chain 2 GGCUGAGUUCUGGCUGGACTT; chemistry not given here) |  |  |  |  |  |  |  |  |  |  |  |  |  |  |  |  | profound inhibition of proliferation | profound inhibition of proliferation
